Measurements reported in ChEMBL document CHEMBL4507315 (2021).

Assays:
[1] = target: Serine/threonine-protein kinase D3 (Homo sapiens) (UniProt O94806); details: Compound concentration 100.0 nM
[2] = target: Mu-type opioid receptor (Homo sapiens) (UniProt P35372); details: Compound concentration 10.0 uM
[3] = target: Ribosomal protein S6 kinase alpha-2 (Homo sapiens) (UniProt Q15349); details: Compound concentration 100.0 nM
[4] = target: Ribosomal protein S6 kinase alpha-5 (Homo sapiens) (UniProt O75582); details: Compound concentration 100.0 nM
[5] = target: Tyrosine-protein kinase CSK (Homo sapiens) (UniProt P41240); details: Compound concentration 100.0 nM
[6] = target: Serine/threonine-protein kinase Sgk3 (Homo sapiens) (UniProt Q96BR1); details: Compound concentration 100.0 nM
[7] = target: Serine/threonine-protein kinase PLK2 (Homo sapiens) (UniProt Q9NYY3); details: Compound concentration 100.0 nM
[8] = target: Mitogen-activated protein kinase kinase kinase 20 (Homo sapiens, UniProt Q9NYL2); details: Compound concentration 100.0 nM
[9] = target: Cyclin-dependent kinase 4 (Homo sapiens) (UniProt P11802); details: Compound concentration 100.0 nM
[10] = test system: Proto-oncogene tyrosine-protein kinase receptor Ret (Homo sapiens), P07949 [M918T]; details: Compound concentration 100.0 nM
[11] = target: Myotonin-protein kinase (Homo sapiens) (UniProt Q09013); details: Compound concentration 100.0 nM
[12] = target: Mitogen-activated protein kinase 11 (Homo sapiens) (UniProt Q15759); details: Compound concentration 100.0 nM
[13] = target: 5-hydroxytryptamine receptor 1B (Homo sapiens) (UniProt P28222); details: Compound concentration 10.0 uM
[14] = target: Ephrin type-B receptor 3 (Homo sapiens) (UniProt P54753); details: Compound concentration 100.0 nM
[15] = target: Serine/threonine-protein kinase mTOR (Homo sapiens) (UniProt P42345); details: Compound concentration 100.0 nM
[16] = target: Serine/threonine-protein kinase TAO1 (Homo sapiens) (UniProt Q7L7X3); details: Compound concentration 100.0 nM
[17] = target: Receptor tyrosine-protein kinase erbB-3 (Homo sapiens) (UniProt P21860); details: Compound concentration 100.0 nM
[18] = target: Serine/threonine-protein kinase WNK2 (Homo sapiens) (UniProt Q9Y3S1); details: Compound concentration 100.0 nM
[19] = target: Mitogen-activated protein kinase 15 (Homo sapiens) (UniProt Q8TD08); details: Compound concentration 100.0 nM
[20] = target: Mitogen-activated protein kinase kinase kinase 2 (Homo sapiens) (UniProt Q9Y2U5); details: Compound concentration 100.0 nM
[21] = target: RAC-beta serine/threonine-protein kinase (Homo sapiens) (UniProt P31751); details: Compound concentration 100.0 nM
[22] = target: Activated CDC42 kinase 1 (Homo sapiens) (UniProt Q07912); details: Compound concentration 100.0 nM
[23] = test system: Epidermal growth factor receptor (Homo sapiens), P00533 [T790M]; details: Compound concentration 100.0 nM
[24] = test system: Phosphatidylinositol 4,5-bisphosphate 3-kinase catalytic subunit alpha isoform (Homo sapiens), P42336 [E542K]; details: Compound concentration 100.0 nM
[25] = target: Homeodomain-interacting protein kinase 1 (Homo sapiens) (UniProt Q86Z02); details: Compound concentration 100.0 nM
[26] = target: Serine/threonine-protein kinase TNNI3K (Homo sapiens) (UniProt Q59H18); details: Compound concentration 100.0 nM
[27] = test system: Mast/stem cell growth factor receptor Kit (Homo sapiens), P10721 [V559D,V654A]; details: Compound concentration 100.0 nM
[28] = target: Serine/threonine-protein kinase 25 (Homo sapiens) (UniProt O00506); details: Compound concentration 100.0 nM
[29] = target: Ephrin type-A receptor 2 (Homo sapiens) (UniProt P29317); details: Compound concentration 100.0 nM
[30] = target: NUAK family SNF1-like kinase 1 (Homo sapiens) (UniProt O60285); details: Compound concentration 100.0 nM
[31] = target: GABA-A receptor; anion channel (Rattus norvegicus) (UniProt O09028+P15431+P18506+P18508+P19969+P20236+P23574+P23576+P28471+P28473+P30191+P62813+P63079+P63138+Q91ZM7+Q9ES14); details: Compound concentration 10.0 uM
[32] = target: Phosphatidylinositol 4,5-bisphosphate 3-kinase catalytic subunit beta isoform (Homo sapiens) (UniProt P42338); details: Compound concentration 100.0 nM
[33] = target: Calcium/calmodulin-dependent protein kinase kinase 2 (Homo sapiens) (UniProt Q96RR4); details: Compound concentration 100.0 nM
[34] = target: Mitogen-activated protein kinase kinase kinase 12 (Homo sapiens) (UniProt Q12852); details: Compound concentration 100.0 nM
[35] = target: Testis-specific serine/threonine-protein kinase 3 (Homo sapiens) (UniProt Q96PN8); details: Compound concentration 100.0 nM
[36] = test system: Phosphatidylinositol 4,5-bisphosphate 3-kinase catalytic subunit alpha isoform (Homo sapiens), P42336 [E545K]; details: Compound concentration 100.0 nM
[37] = target: Tyrosine-protein kinase SYK (Homo sapiens) (UniProt P43405); details: Compound concentration 100.0 nM
[38] = target: MAP/microtubule affinity-regulating kinase 4 (Homo sapiens) (UniProt Q96L34); details: Compound concentration 100.0 nM
[39] = target: Macrophage-stimulating protein receptor (Homo sapiens) (UniProt Q04912); details: Compound concentration 100.0 nM
[40] = target: Phosphatidylinositol 4-kinase beta (Homo sapiens) (UniProt Q9UBF8); details: Compound concentration 100.0 nM
[41] = target: Histamine H3 receptor (Homo sapiens) (UniProt Q9Y5N1); details: Compound concentration 10.0 uM
[42] = target: Serine/threonine-protein kinase SIK2 (Homo sapiens) (UniProt Q9H0K1); details: Compound concentration 100.0 nM
[43] = target: Mitogen-activated protein kinase 13 (Homo sapiens) (UniProt O15264); details: Compound concentration 100.0 nM
[44] = target: Homeodomain-interacting protein kinase 2 (Homo sapiens) (UniProt Q9H2X6); details: Compound concentration 100.0 nM
Sequence of Homeodomain-interacting protein kinase 2 (Homo sapiens) (Q9H2X6 whole entry, looked up): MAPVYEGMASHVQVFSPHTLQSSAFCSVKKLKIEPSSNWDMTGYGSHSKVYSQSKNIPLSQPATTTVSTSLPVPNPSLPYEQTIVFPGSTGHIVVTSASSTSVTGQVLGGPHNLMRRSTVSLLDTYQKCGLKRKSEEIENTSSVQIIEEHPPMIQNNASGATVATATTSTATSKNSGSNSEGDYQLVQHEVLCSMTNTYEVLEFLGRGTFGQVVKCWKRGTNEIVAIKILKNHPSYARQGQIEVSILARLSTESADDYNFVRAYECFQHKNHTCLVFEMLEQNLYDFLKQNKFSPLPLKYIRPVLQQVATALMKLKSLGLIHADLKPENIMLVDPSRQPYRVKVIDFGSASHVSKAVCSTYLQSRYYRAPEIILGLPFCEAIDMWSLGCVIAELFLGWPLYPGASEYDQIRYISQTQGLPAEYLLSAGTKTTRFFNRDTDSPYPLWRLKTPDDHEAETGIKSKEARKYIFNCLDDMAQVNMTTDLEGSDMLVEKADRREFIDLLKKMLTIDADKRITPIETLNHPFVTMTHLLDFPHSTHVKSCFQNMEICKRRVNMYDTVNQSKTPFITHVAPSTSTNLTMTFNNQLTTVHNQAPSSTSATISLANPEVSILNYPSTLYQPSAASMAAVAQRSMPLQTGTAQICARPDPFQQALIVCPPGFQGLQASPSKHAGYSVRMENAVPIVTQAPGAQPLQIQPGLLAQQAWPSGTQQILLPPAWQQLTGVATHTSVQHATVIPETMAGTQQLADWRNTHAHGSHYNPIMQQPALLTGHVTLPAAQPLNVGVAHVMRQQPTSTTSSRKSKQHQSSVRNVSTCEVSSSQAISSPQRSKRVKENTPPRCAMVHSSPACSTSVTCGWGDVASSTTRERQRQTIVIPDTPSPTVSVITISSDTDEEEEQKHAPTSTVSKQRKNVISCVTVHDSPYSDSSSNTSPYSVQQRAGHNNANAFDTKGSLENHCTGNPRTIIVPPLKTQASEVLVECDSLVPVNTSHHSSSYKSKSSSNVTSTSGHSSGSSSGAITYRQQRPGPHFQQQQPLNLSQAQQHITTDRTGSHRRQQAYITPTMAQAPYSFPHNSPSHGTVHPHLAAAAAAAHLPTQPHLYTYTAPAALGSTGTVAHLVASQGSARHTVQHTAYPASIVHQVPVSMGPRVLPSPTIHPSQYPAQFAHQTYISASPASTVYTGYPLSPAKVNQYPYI

Sequence of Ephrin type-B receptor 3 (Homo sapiens) (P54753 whole entry): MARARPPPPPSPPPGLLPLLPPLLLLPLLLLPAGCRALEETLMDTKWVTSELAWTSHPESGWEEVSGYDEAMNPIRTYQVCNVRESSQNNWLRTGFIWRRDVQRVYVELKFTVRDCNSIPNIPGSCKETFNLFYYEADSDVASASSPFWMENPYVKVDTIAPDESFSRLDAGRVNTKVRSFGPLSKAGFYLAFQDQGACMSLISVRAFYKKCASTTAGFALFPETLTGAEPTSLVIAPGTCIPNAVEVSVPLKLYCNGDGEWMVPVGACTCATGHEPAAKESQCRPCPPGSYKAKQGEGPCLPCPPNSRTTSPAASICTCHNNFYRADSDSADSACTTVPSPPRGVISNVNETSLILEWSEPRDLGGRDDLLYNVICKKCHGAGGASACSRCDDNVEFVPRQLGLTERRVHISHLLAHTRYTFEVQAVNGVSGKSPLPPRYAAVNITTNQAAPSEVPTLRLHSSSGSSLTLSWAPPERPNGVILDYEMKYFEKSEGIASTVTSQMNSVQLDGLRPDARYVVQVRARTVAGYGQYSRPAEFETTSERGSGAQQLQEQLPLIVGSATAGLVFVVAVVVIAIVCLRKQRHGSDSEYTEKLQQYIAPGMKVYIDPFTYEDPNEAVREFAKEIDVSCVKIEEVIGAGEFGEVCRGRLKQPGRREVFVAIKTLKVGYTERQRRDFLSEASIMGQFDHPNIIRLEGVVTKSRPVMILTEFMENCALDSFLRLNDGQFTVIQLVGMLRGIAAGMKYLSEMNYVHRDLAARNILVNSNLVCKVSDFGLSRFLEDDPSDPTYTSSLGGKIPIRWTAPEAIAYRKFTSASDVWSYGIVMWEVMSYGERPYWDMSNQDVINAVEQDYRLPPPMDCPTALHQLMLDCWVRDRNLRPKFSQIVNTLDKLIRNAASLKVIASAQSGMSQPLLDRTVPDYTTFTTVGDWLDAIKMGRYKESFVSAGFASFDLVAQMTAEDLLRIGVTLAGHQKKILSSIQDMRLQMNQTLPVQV
Sequence of Phosphatidylinositol 4,5-bisphosphate 3-kinase catalytic subunit alpha isoform (Homo sapiens), P42336 [E542K] (P42336 whole entry E542K, canonical isoform): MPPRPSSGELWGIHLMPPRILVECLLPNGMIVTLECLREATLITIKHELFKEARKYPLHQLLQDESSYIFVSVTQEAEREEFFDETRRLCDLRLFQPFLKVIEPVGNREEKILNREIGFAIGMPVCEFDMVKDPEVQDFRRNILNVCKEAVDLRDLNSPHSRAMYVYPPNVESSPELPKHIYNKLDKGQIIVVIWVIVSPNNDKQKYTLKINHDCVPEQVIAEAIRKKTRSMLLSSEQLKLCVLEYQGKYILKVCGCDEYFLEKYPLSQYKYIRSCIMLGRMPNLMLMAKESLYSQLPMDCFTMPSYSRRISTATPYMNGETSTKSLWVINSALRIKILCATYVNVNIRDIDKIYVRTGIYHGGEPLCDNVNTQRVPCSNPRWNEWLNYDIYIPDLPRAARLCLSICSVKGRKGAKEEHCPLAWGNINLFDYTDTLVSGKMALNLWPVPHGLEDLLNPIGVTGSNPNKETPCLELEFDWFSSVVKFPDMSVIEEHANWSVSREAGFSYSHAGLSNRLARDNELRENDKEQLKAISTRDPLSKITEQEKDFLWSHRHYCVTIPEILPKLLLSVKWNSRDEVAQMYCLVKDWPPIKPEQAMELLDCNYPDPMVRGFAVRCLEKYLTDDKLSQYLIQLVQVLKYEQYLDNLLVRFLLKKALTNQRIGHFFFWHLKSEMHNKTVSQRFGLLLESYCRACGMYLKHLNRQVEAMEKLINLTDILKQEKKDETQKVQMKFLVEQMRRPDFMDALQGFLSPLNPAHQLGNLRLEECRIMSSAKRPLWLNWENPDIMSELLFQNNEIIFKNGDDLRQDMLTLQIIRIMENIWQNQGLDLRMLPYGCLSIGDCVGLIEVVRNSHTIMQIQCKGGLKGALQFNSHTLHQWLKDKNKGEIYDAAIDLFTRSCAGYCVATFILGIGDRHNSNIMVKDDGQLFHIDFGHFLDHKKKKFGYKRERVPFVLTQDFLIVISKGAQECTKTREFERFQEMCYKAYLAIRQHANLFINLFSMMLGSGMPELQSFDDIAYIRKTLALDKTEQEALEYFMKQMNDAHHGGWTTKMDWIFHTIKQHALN
Sequence of Histamine H3 receptor (Homo sapiens) (Q9Y5N1 whole entry): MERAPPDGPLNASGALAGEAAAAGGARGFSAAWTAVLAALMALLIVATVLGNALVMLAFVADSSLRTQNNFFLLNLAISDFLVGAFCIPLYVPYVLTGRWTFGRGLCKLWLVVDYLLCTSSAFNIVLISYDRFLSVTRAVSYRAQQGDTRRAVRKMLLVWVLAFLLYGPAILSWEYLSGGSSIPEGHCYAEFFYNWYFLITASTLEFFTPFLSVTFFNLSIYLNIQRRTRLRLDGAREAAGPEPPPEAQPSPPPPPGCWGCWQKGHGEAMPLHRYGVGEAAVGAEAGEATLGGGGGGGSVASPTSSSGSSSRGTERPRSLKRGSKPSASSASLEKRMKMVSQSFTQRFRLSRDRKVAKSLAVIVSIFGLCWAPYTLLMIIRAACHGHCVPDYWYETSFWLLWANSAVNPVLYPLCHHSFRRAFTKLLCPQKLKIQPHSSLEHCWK
Sequence of Serine/threonine-protein kinase Sgk3 (Homo sapiens) (Q96BR1 whole entry): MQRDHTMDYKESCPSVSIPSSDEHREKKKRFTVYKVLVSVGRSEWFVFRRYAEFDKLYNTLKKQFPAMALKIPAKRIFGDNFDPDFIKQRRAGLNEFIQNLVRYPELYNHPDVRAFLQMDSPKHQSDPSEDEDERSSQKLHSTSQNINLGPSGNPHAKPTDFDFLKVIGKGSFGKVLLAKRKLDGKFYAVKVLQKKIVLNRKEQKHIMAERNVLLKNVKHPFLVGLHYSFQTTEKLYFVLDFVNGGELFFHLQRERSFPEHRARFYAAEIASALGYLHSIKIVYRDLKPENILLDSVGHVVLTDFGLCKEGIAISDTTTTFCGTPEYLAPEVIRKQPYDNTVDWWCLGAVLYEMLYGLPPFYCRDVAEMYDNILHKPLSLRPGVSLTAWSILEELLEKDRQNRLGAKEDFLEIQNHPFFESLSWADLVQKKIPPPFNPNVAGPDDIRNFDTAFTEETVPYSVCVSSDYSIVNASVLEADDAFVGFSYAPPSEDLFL
Sequence of Myotonin-protein kinase (Homo sapiens) (Q09013 whole entry): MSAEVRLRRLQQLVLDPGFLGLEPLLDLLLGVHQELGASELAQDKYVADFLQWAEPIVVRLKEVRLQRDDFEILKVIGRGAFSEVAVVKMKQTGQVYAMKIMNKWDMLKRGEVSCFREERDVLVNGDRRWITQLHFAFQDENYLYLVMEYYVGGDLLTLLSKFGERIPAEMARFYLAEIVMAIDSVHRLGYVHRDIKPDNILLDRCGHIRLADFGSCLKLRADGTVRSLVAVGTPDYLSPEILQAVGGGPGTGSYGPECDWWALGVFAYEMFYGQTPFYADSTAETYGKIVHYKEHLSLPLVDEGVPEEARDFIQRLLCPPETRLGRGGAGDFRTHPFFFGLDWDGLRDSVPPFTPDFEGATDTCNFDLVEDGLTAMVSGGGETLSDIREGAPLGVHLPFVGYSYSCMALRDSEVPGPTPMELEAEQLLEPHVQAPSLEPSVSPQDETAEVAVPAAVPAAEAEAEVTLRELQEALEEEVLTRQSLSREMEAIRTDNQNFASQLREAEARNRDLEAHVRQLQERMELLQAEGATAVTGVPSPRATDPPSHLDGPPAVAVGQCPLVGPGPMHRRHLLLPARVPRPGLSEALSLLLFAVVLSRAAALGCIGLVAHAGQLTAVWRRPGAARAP
Sequence of Phosphatidylinositol 4,5-bisphosphate 3-kinase catalytic subunit alpha isoform (Homo sapiens), P42336 [E545K] (P42336 whole entry E545K, canonical isoform): as the sequence (P42336 whole entry E542K, canonical isoform) above, with K542E, E545K counted along it

Work on `Nc1c(C(=O)NCc2ccc(C(=O)NCCCC3CCCCC3)cc2)cnn1-c1ccccc1` [SR-318] yielded a residual activity [1] of 92%, an inhibition [2] of 41.2% and a residual activity [3] of 100%. For the same compound, the residual activity [4] was 23%, the residual activity [5] was 100% and the residual activity [6] was 90%. It also gave a residual activity [7] of 100%, a residual activity [8] of 42% and a residual activity [9] of 100%. The residual activity [10] was 100%, the residual activity [11] was 77% and the residual activity [12] was 3.4%. The inhibition [13] was 10.4%, the residual activity [14] was 96% and the residual activity [15] was 100%. The residual activity [16] was 91%, the residual activity [17] was 44% and the residual activity [18] was 100%. For the same compound, the residual activity [19] was 100%, the residual activity [20] was 100% and the residual activity [21] was 96%. The residual activity [22] was 89%, the residual activity [23] was 100% and the residual activity [24] was 100%. For the same compound, the residual activity [25] was 100%, the residual activity [26] was 100% and the residual activity [27] was 100%. For the same compound, the residual activity [28] was 82%, the residual activity [29] was 100% and the residual activity [30] was 100%. The inhibition [31] was 13.3%, the residual activity [32] was 100% and the residual activity [33] was 100%. It also gave a residual activity [34] of 100%, a residual activity [35] of 100% and a residual activity [36] of 91%. For the same compound, the residual activity [37] was 74%, the residual activity [38] was 76% and the residual activity [39] was 100%. For the same compound, the residual activity [40] was 100%, the inhibition [41] was -2.98% and the residual activity [42] was 100%. The residual activity [43] was 100% and the residual activity [44] was 100%.
`O=C(NCCCC1CCCCC1)c1ccc(CNC(=O)c2cnn(-c3ccccc3)c2C(F)(F)F)cc1` [SR-321] showed a residual activity [1] of 99%, an inhibition [2] of 19.4% and a residual activity [3] of 100%. The residual activity [4] was 82%, the residual activity [5] was 100% and the residual activity [6] was 92%. It also gave a residual activity [7] of 100%, a residual activity [8] of 100% and a residual activity [9] of 100%. The residual activity [10] was 100%, the residual activity [11] was 83% and the residual activity [12] was 100%. The inhibition [13] was 9.89%, the residual activity [14] was 79% and the residual activity [15] was 100%. For the same compound, the residual activity [16] was 96%, the residual activity [17] was 100% and the residual activity [18] was 100%. For the same compound, the residual activity [19] was 100%, the residual activity [20] was 100% and the residual activity [21] was 100%. For the same compound, the residual activity [22] was 100%, the residual activity [23] was 97% and the residual activity [24] was 74%. For the same compound, the residual activity [25] was 99%, the residual activity [26] was 79% and the residual activity [27] was 100%. For the same compound, the residual activity [28] was 81%, the residual activity [29] was 80% and the residual activity [30] was 100%. It also gave an inhibition [31] of 14%, a residual activity [32] of 100% and a residual activity [33] of 100%. The residual activity [34] was 100%, the residual activity [35] was 100% and the residual activity [36] was 68%. It also gave a residual activity [37] of 100%, a residual activity [38] of 98% and a residual activity [39] of 100%. The residual activity [40] was 77%, the inhibition [41] was 9.12% and the residual activity [42] was 100%. For the same compound, the residual activity [43] was 100% and the residual activity [44] was 100%.
